In brackets after ≈: the same amount, converted by molar mass. Like-named read-outs stand apart in the source and are kept apart here.
What was measured:
Assay in all cases: MIC determination by in vitro antifungal assay
Format in all cases: cell-based
[1] = system: Aspergillus nidulans ATCC 38163 (P)
Experimental: (§1) 10 mg/mL stock solutions of compounds 1a-9j were prepared in dimethyl sulfoxide (DMSO) and were stored at −20° C. in the dark. The antifungal agent amphotericin B (AmB) was purchased from VWR (Radnor PA, USA). AmB was dissolved in DMSO at a final concentration of 5 mg/mL and was stored at −20° C., protected from light. Candida albicans American Type Culture Collection (ATCC) 10231 (strain A), C. albicans ATCC 64124 (B), and C. albicans ATCC MYA-2876 (C) were obtained from Utah State University. C. albicans ATCC 90819 (D), C. albicans ATCC MYA-2310 (E), C. albicans ATCC MYA-1237 (F), C. albicans ATCC MYA-1003 (G), Candida glabrata ATCC 2001 (H), Candida krusei ATCC 6258 (I), Candida parapsilosis ATCC 22019 (J), Cryptococcus neoformans ATCC MYA-895 (M), Aspergillus terreus ATCC MYA-3633 (N), and Aspergillus flavus ATCC MYA-3631 (0) were obtained from the American Type Culture Collection (ATCC; Manassas, VA, USA). Aspergillus nidulans ATCC 38163 (P) was obtained from University of Kentucky. Clinically derived Aspergillus fumigatus NRRL 163 (Q), A. fumigatus NRRL 5109 (R), and A. fumigatus NRRL 6113 (S) were obtained from Northern Regional Research Laboratory (NRRL). Candida auris 384 (K), C. auris 390 (L), and fungal strains 381-400 (including 10 C. auris (AR Bank #381-390), 3 Candida duobushaemulonii (AR Bank #391, AR Bank #392, and AR Bank #394), 2 Candida haemulonii (AR Bank #393 and AR Bank #395), 1 Kodameae ohmeri (AR Bank #396), 1 C. krusei (AR Bank #397), 1 Candida lusitaniae (AR Bank #398), and 2 Saccharomyces cerevisiae strains (AR Bank #399 and AR Bank #400)) were part of a larger fungal library from the AR Bank maintained by the Centers for Disease Control and Prevention (CDC; Atlanta, GA, USA). Filamentous fungi and yeasts were cultivated at 35° C. in RPMI 1640 medium (with L-glutamine, without sodium bicarbonate, Sigma-Aldrich, St. Louis, MO) buffered to a pH of 7.0 with 0.165 M morpholinepropanesulfonic acid (MOPS) buffer (Sigma-Aldrich). For cytotoxicity assays, HepG2 and the mouse macrophage cell line J774A.1 were obtained from University of Kentucky. The human embryonic kidney cell line, HEK-293, was bought from the ATCC. Mammalian cells were grown in Dulbecco's Modified Eagle's Medium (DMEM) (from VWR) with 10% fetal bovine serum (FBS) (from VWR) and 1% Pen/Strep (from ATCC). Cell lines were cultured at 37° C. with 5% CO2 and passaged by trypsinization with 0.05% trypsin: 0.53 mM EDTA (from Sigma-Aldrich).
(§2) The MIC values of compounds 1a-9j against yeast cells (strains A-P and 381-400) were determined in 96-well plates as described in the CLSI documents M27-A3 and M38-A2 with minor modifications.^2 A single colony of freshly prepared yeast cells was used to inoculate 5 mL of yeast extract peptone dextrose (YPD) broth prior to incubation overnight with shaking at 200 rpm at 35° C. From the actively growing yeast culture, 100 µL were then transferred to 900 μL of RPMI 1640 medium and re-adjusted to achieve OD600 of 0.12 (˜1×10^6 CFU/mL). The cell suspension was further diluted to achieve 1:100 in RPMI 1640 medium. 100 μL of cells were added to the wells of a 96-well microtiter plates that contained 100 µL of the compound solution to obtain concentrations of 0.06-31.3 μg/mL of compounds 1a-9j or AmB prior to incubation for 48 h at 35° C.
(§3) Finally, the activity of these monohydrazides was explored against […] non-Candida strains: Cryptococcus neoformans ATCC MYA-895 (M), Aspergillus terreus ATCC MYA-3633 (N), Aspergillus flavus ATCC MYA-3631 (O), Aspergillus nidulans ATCC 38163 (P), Aspergillus fumigatus NRRL 163 (Q), A. fumigatus NRRL 5109 (R), and A. fumigatus NRRL 6113 (S) (Tables 1A and 1B). The double dilution method was used with concentrations ranging from 0.06 to 31.3 j·tg mL^−1 for monohydrazides 1a-9j, and the commercially available positive antifungal control amphotericin B (AmB).

[2] = system: Cryptococcus neoformans ATCC MYA-895 (M); settings: strain M = C. neoformans ATCC MYA-895
Experimental: as §1, §2, §3

[3] = system: Aspergillus flavus ATCC MYA-3631 (O); settings: strain O = A. flavus ATCC MYA-3631
Experimental: as §1, §2, §3

[4] = system: Aspergillus terreus ATCC MYA-3633 (N); settings: strain N = A. terreus ATCC MYA-3633
Experimental: as §1, §2, §3

[5] = strain P = A. nidulans ATCC 38163
[6] = Aspergillus nidulans, ATCC38163, strain P = A. nidulans ATCC 38163, read-out: MIC
[7] = Cryptococcus neoformans, read-out: MIC
[8] = Aspergillus flavus, read-out: MIC
[9] = Aspergillus terreus, read-out: MIC

SMILES | MIC [1, 5] [μg/mL^−1] | MIC [2] [μg/mL^−1] | MIC [3] [μg/mL^−1] | MIC [4] [μg/mL^−1] | MIC [1, 6] [µg/mL] | MIC [2, 7] [µg/mL] | MIC [3, 8] [µg/mL] | MIC [4, 9] [µg/mL]
O=C(NNc1ccc(Cl)cc1)c1cnccn1 [Compound 9e] | 1.95 | 0.98 | >31.3 | 7.8 | – | – | – | –
O=C(NNc1cccc(F)c1)c1nc(F)ccc1F [Compound 8a] | 1.95 | ≤0.06 | >31.3 | 3.9 | – | – | – | –
O=C(NNc1ccc(F)cc1)c1cnccn1 [Compound 9d] | – | – | – | – | 0.49 (≈ 2.11 µM) | 0.24 (≈ 1.03 µM) | 15.6 (≈ 67.2 µM) | 1.95 (≈ 8.4 µM)
COc1ccc(NNC(=O)c2cccc(Br)n2)cc1 [Compound 6f] | – | – | – | – | 3.9 (≈ 12.1 µM) | 1.95 (≈ 6.05 µM) | > 31.3 | 7.8 (≈ 24.2 µM)
O=C(NNc1ccc(F)cc1F)c1ncc(F)cc1F [Compound 7g] | – | – | – | – | 0.98 (≈ 3.44 µM) | 0.98 (≈ 3.44 µM) | > 31.3 | 7.8 (≈ 27.3 µM)
O=C(NNc1ccc(F)cc1)c1cccc(F)n1 [Compound 5d] | – | – | – | – | 0.98 (≈ 3.93 µM) | 0.49 (≈ 1.97 µM) | 7.8 (≈ 31.3 µM) | 1.95 (≈ 7.82 µM)
COc1ccc(NNC(=O)c2cccc(F)n2)cc1 [Compound 5f] | – | – | – | – | 1.95 (≈ 7.46 µM) | 0.24 (≈ 0.919 µM) | > 31.3 | 15.6 (≈ 59.7 µM)
O=C(NNc1ccc(F)cc1)c1ccccn1 [Compound 2d] | – | – | – | – | 0.49 (≈ 2.12 µM) | 0.24 (≈ 1.04 µM) | 31.3 (≈ 135 µM) | 1.95 (≈ 8.43 µM)
COc1cccc(NNC(=O)c2nc(F)ccc2F)c1 [Compound 8c] | – | – | – | – | 7.8 (≈ 27.9 µM) | 7.8 (≈ 27.9 µM) | > 31.3 | 31.3 (≈ 112 µM)
O=C(NNc1cccc(Cl)c1)c1ccc(F)cc1F [Compound 1b] | – | – | – | – | 3.9 (≈ 13.8 µM) | 1.95 (≈ 6.9 µM) | > 31.3 | 7.8 (≈ 27.6 µM)
O=C(NNc1ccc(F)cc1)c1cccc(Br)n1 [Compound 6d] | – | – | – | – | 0.98 (≈ 3.16 µM) | 0.98 (≈ 3.16 µM) | 15.6 (≈ 50.3 µM) | 3.9 (≈ 12.6 µM)
O=C(NNc1cccc(F)c1)c1cnccn1 [Compound 9a] | 0.98 | 0.12 | 15.6 | 0.98 | – | – | – | –
O=C(NNc1cc(F)cc(F)c1)c1cnccn1 [Compound 9i] | – | – | – | – | 1.95 (≈ 7.79 µM) | 0.24 (≈ 0.959 µM) | 3.9 (≈ 15.6 µM) | 1.95 (≈ 7.79 µM)
O=C(NNc1ccc(F)cc1)c1ncc(F)cc1F [Compound 7d] | – | – | – | – | 0.49 (≈ 1.83 µM) | 0.49 (≈ 1.83 µM) | 7.8 (≈ 29.2 µM) | 3.9 (≈ 14.6 µM)
O=C(NNc1ccc(F)cc1)c1ccc(Br)cn1 [Compound 4d] | – | – | – | – | 1.95 (≈ 6.29 µM) | 0.98 (≈ 3.16 µM) | 15.6 (≈ 50.3 µM) | 7.8 (≈ 25.2 µM)
O=C(NNc1ccc(Cl)cc1)c1cccc(F)n1 [Compound 5e] | 7.8 | 1.95 | >31.3 | 31.3 | – | – | – | –
O=C(NNc1cc(Cl)cc(Cl)c1)c1ccccn1 [Compound 2j] | – | – | – | – | 0.49 (≈ 1.74 µM) | 0.49 (≈ 1.74 µM) | > 31.3 | 1.95 (≈ 6.91 µM)
O=C(NNc1ccc(Cl)cc1)c1ncc(F)cc1F [Compound 7e] | 7.8 | 1.95 | >31.3 | >31.3 | – | – | – | –
O=C(NNc1cccc(F)c1)c1ccc(Br)cn1 [Compound 4a] | 1.95 | 0.06 | 15.6 | 0.98 | – | – | – | –
O=C(NNc1ccc(F)cc1F)c1ccc(F)cn1 [Compound 3g] | – | – | – | – | 0.98 (≈ 3.67 µM) | 0.98 (≈ 3.67 µM) | 15.6 (≈ 58.4 µM) | 3.9 (≈ 14.6 µM)
O=C(NNc1cc(Cl)cc(Cl)c1)c1cnccn1 [Compound 9j] | – | – | – | – | 7.8 (≈ 27.6 µM) | 0.49 (≈ 1.73 µM) | > 31.3 | 3.9 (≈ 13.8 µM)
O=C(NNc1ccc(F)cc1)c1ccc(F)cc1F [Compound 1d] | – | – | – | – | 3.9 (≈ 14.6 µM) | 0.49 (≈ 1.84 µM) | > 31.3 | 3.9 (≈ 14.6 µM)
O=C(NNc1ccc(F)cc1F)c1ccc(F)cc1F [Compound 1g] | – | – | – | – | 1.95 (≈ 6.86 µM) | 0.49 (≈ 1.72 µM) | > 31.3 | 31.3 (≈ 110 µM)
O=C(NNc1cc(F)ccc1F)c1cnccn1 [Compound 9h] | – | – | – | – | 1.95 (≈ 7.79 µM) | 0.49 (≈ 1.96 µM) | > 31.3 | 1.95 (≈ 7.79 µM)
O=C(NNc1ccc(F)cc1)c1nc(F)ccc1F [Compound 8d] | – | – | – | – | 0.49 (≈ 1.83 µM) | 0.49 (≈ 1.83 µM) | 7.8 (≈ 29.2 µM) | 1.95 (≈ 7.3 µM)
COc1ccc(NNC(=O)c2cnccn2)cc1 [Compound 9f] | – | – | – | – | 0.98 (≈ 4.01 µM) | 0.98 (≈ 4.01 µM) | > 31.3 | > 31.3
O=C(NNc1cccc(Cl)c1)c1cnccn1 [Compound 9b] | – | – | – | – | 0.98 (≈ 3.94 µM) | 0.24 (≈ 0.965 µM) | > 31.3 | 0.98 (≈ 3.94 µM)
O=C(NNc1ccc(F)cc1F)c1nc(F)ccc1F [Compound 8g] | – | – | – | – | 0.49 (≈ 1.72 µM) | 0.49 (≈ 1.72 µM) | > 31.3 | 31.3 (≈ 110 µM)

— US20240425464A1, “Substituted Monohydrazides as Potent Antifungal Agents” (University of Kentucky Research Foundation, priority 2023, published 2024)
